{
  "source": "patent US8512769B2",
  "about": "“Valerian extract preparation” (priority 2006, dated 2013)",
  "system": "male CD rats",
  "assay": "Forced swimming test (FST) for antidepressive effect",
  "type": "in vivo",
  "conditions": "1 mg/kg",
  "from_the_text": "A more specific test for antidepressive activity is provided by the forced swimming test (FST) developed by Porsolt (Porsolt et al., 1978. Behavioural despair in rats: a new model sensitive to antidepressant treatments, Eur. J. Pharmacol. 47, 379-391).\nIn a so-called “forced swimming test”, the test animals (rats) are challenged by a stress situation from which they cannot escape by their own efforts. For this purpose, rats are at first left in a water-filled glass cylinder for a time of 15 minutes in a preliminary test (conditioning) one day before the actual test. The filling level is matched to the animals' body weight, so that every animal can support itself with the paws and tail and can keep its nose above water with minimum swimming movements. […] Twenty-four hours after this preliminary test, the test with valerian extract is performed in which the rats are again inserted into the water cylinders and the duration of immobility over a period of 5 minutes is cumulatively recorded.\nFor testing the valerian formulations on male CD rats, a pretreatment was used for 16 days, and the formulation according to Example 2b) was employed. […] The experiment was recorded by means of a video camera, and the time of immobility of the animals was later detected manually on the screen.",
  "data": [
    {"smiles": "CN1C(=O)CN=C(c2ccccc2)c2cc(Cl)ccc21", "note": "[Diazepam]", "values": [
      {"measurement": "Shortening of immobility time as compared to the control group", "value": 28, "unit": "%"}
    ]}
  ]
}
